Experiments:
[1] = tested on: dead cells within live C. elegans; assay: Visualization of cell death with propidium iodide; type: in vivo, Caenorhabditis elegans; settings: for cell death (propidium iodide), preceding organismal death: aged cohorts or young animals treated with DEM, 4-day old and 6 and 8 day old adults; for cell death (animals with any dead cells): at 6 and 8 days of age
Method: The red-fluorescent propidium iodide (PI)^o was used to visualize dead cells within live C. elegans after DEM treatment and during aging. Populations were incubated for 24 h at 25° C. with PI (a 10 μL volume of 0.25 mg/mL solution added to the bacterial lawn on 50 mm NGM plates) prior to the described age or with concurrent exposure to 10 mM DEM (as described above) and PI. For aging experiments^o animals were visualized at Day 6 and Day 8. Cohorts of live animals (i.e. showing spontaneous or touch-provoked movement) were isolated and mounted under glass coverslips on 2% agarose pads without anesthetic. Imaging were captures with on a Leica DMI3000B inverted microscope^o DsRed filter set and a DFC 3000G digital.
Differences between the proportion of live animals with fluorescently labelled nuclei in control versus Lip-1 and SIH treatment, either aged or exposed to DEM, were compared using a z-test.

OP50 E. coli = assay: Bacterial growth assay (OD600); type: cell-based, Escherichia coli; settings: after 12 hours, 37° C
Method: The effects of test compounds on growth of the OP50 E. coli feed was assayed using optical density at 600 nm (OD600). Using standard microtitre plates, replicate wells of 200 μL of sterile Luria broth were inoculated with 2 μL of an overnight OP50 culture in addition to the stated final concentrations of ampicillin (Amp), Lip-1 and SIH. OD600 measures were taken after 12 hours in an EnSpire (PerkinElmer) spectrophotometric plate reader preset to 37° C., with 30 sec of 200 rpm orbital shaking every 10 minutes.
Data was averaged across duplicate experiments, each with eight replicate wells per treatment where a baseline of Luria broth without an inoculate was subtracted.

C. elegans [2] = assay: Body size analysis; type: in vivo, Caenorhabditis elegans
Method: […] The treatment plates included NGA with 0.5% (v/v) DMSO (vehicle control, Ctl), 250 μM SIH, or 200 μM Lip-1 (as described above).
Cohorts of approximately 100 animals were transferred into a 1.5 ml centrifuge tube containing 400 μL S-basal. Following a brief centrifugation excess S-basal was removed leaving the animals suspended in 50 μL. Animals were euthanized and straightened by a 15 second exposure to 60° C. (using a heated water bath). Samples were then mounted between glass slides and a cover slip and immediately imaged. Micrographs were collected using a Leica M80 stereomicroscope and Leica DFC290 HD 3 MP) digital camera. Pixel sizes were defined using a calibrated 25 μm grid slide (Microbrightfield, Inc). Size and shape metrics were extracted from brightfield images were analyzed using the WormSizer plugin for ImageJ.
Data of estimated adult body length and volume were initially assessed for normality using a D'Agostino & Pearson test. Based on this analysis a nonparametric Kruskal-Wallis Analysis of Variance (ANOVA) was performed followed by a Dunn-Šidák test for multiple comparisons (as implemented by Prism v7.0a, GraphPad Software). There was a significant difference between body length (H(10)=432.6, p<0.0001) amongst the groups measured.

C. elegans strain TJ1060 = assay: Parametric survival models (Weibull frailty), goodness of fit, combining replicates, meta-analysis; design: species or system Caenorhabditis elegans
Method: Parametric survival models with Weibull baseline hazards and Gamma frailty were fitted to replicate-specific data using the R package flexsurv. A likelihood ratio test was used to compare models that assume simple temporal rescaling to models that allow varying degrees of departure from temporal rescaling. The best model for each replicate was selected using a likelihood ratio test and the goodness of fit (GOF) of the best model is evaluated using a chi-square GOF test. To combine data across different replicates, we performed fixed-effect and random-effect meta-analyses for each parameter in the best model. Briefly, the fixed-effect meta-analysis estimates were derived using Inverse Variance Weighting (IVW) in which the estimates from each replicate were weighted by the inverse of their variance estimates. The meta-analysis estimates were then calculated simply as the weighted average of estimates from all replicates. The fixed-effect meta-analysis assumes that there is insignificant variation between the estimates of the same parameter across different replicates. The random-effect meta-analysis also derives the estimates by assigning weights to estimates from each replicate, but in this case the weights take into account the variation of estimates across replicates. […]

C. elegans [3] = assay: Temporal rescaling by temperature: lifespan at 20° C. and 25° C.; type: in vivo, Caenorhabditis elegans
Method: The effect of temperature is evaluated separately for control and SIH treated worms, population sizes for each replicate are shown in Table 20.
For each of two replicates and treatment factors, the AFT model with Weibull baseline hazard was fitted with temperature as the covariate. The residuals from this model were then subjected to the K-S test.
For both populations, being exposed to the higher temperature of 25° C. accelerates life as expected, by approximately 30% for control worms (Otemp=0.72 (95% Cl: 0.68; 0.77) and 20% for SIH worms (Otemp=0.81 (95% Cl: 0.78; 0.84).

Row | Compound | cell death (propidium iodide), preceding organismal death [1] | cell death (animals with any dead cells) [1] | growth of OP50 E. coli (OD600) (OP50 E. coli) | length or volume (C. elegans [2]; in vivo) | rate of mortality in the post-reproductive period (late-life) (C. elegans strain TJ1060) | body volume (C. elegans [2]; Day 4) | body length, mean±SD (C. elegans [2]; Day 8, control 1440±123 μm, p<0.001) [μm] | body length versus similarly aged controls (C. elegans [2]; after 4 days and 8 days of intervention) | body volume over time (C. elegans [2]; in vivo) | risk of death (hazard) in early adulthood (C. elegans strain TJ1060; compared to control populations, rose precipitously in late life) | lifespan extension at two temperatures (C. elegans [3])
1 | Clc1cccc(CNC2=Nc3ccccc3NC23CCNCC3)c1 [Lip-1, N-[(3-chlorophenyl)methyl]-spiro[piperidine-4,2′(1′H)-quinoxalin]-3′-amine] | significantly attenuated | completely suppressed | neither Lip-1 nor SIH suppressed bacterial growth | no effect on length or volume | markedly reduced |  |  |  |  |  | 
2 | O=C(N/N=C/c1ccccc1O)c1ccncc1 [SIH, Salicylaldehyde isonicotinoyl hydrazone] | significantly attenuated | completely suppressed | neither Lip-1 nor SIH suppressed bacterial growth |  |  | greater volume than both control and Lip-1 treated worms | 1696±64 | significantly longer | increase in body volume between Days 1 and 4, but not thereafter | greatly reduced | still extended lifespan by a similar dimension

Source: US20230172940A1, “METHODS OF EXTENDING LIFESPAN BY ADMINISTERING FERROPTOSIS INHIBITORS” (COLLABORATIVE MEDICINAL DEVELOPMENT, LLC, priority 2020, published 2023)
